Measurements taken from US7981903B2, “2-[2-{phenylamino}-1H-pyrrolo[2,3-D]pyrimidin-4-yl)amino] benzamide derivatives as IGF-1R inhibitors for the treatment of cancer” (GlaxoSmithKline LLC, priority 2007, dated 2011).

Tests used:
[1] = molecular target: ALK (Homo sapiens, UniProt Q9UM73); assay: ALK enzyme assay (HTRF); format: biochemical; conditions: 0.25 nM ALK, 15.0 μM ATP, values given as pIC50 category
In short: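 Final compound range 0.00017 to 10 μM (twelve 1:3 dilutions). Kinase reaction with ATP and biotinylated synthetic peptide runs 120 min at 20° C, stopped with EDTA; phosphotyrosine detected by HTRF after 60 min. Inhibition referenced to DMSO (1%) and EDTA (0.1 M) controls, curve-fitted.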

[2] = molecular target: T1, NIH-3T3 cells overexpressing human IR (Homo sapiens, UniProt P06213); assay: IR cellular autophosphorylation (DELFIA); format: cell-based; conditions: 2 h compound, insulin 3 ug/ml for 15 minutes, IC50 category
T1 construct: expressed in transfected cells; host or cells: NIH-3T3 (mouse fibroblasts)
T1 sequence (P06213 28-1382): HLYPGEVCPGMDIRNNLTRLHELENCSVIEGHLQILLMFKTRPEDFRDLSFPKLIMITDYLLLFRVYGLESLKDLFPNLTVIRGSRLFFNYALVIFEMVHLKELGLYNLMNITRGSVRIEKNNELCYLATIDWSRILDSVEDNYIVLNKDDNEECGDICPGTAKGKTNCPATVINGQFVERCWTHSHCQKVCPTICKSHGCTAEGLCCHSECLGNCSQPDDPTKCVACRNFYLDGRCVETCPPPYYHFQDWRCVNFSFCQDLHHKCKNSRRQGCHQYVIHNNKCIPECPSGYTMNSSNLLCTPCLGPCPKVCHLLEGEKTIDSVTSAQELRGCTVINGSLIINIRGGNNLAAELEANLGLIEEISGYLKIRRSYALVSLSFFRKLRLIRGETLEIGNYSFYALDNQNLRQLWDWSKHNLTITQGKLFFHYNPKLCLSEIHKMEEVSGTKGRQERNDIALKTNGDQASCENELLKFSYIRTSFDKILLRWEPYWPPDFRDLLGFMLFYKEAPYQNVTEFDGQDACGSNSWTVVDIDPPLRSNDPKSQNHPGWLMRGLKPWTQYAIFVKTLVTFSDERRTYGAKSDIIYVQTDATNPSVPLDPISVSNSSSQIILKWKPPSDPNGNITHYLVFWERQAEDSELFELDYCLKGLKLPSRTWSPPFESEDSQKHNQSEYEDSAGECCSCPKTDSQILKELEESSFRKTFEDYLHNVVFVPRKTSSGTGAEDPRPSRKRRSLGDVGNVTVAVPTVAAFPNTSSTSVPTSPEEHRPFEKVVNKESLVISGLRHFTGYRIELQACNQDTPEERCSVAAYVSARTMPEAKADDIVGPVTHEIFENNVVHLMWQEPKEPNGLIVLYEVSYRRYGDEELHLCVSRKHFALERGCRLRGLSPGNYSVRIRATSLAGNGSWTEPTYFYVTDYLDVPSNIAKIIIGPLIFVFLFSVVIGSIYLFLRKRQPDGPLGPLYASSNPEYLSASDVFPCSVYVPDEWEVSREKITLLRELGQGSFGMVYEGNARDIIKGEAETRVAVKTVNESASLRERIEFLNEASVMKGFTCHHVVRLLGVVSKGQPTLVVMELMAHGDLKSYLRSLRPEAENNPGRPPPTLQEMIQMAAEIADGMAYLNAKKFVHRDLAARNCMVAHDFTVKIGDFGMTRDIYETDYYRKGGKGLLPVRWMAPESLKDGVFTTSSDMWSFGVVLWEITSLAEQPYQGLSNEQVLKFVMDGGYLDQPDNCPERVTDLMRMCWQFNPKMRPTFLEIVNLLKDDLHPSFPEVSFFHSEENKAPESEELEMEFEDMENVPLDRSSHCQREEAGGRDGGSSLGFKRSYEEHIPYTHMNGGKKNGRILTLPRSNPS
In short: (§1)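 Receptor autophosphorylation measured by DELFIA, capturing IGF-1R or IRβ and detecting with europium anti-pTyr, reported as percent of IGF-1- or insulin-stimulated signal. Compounds (30 uM to 1.5 nM) added 2 h before ligand, then 15 min stimulation (IGF-1 30 ng/ml or insulin 3 ug/ml).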

[3] = molecular target: T2, NIH-3T3 cells overexpressing human IGF-1R (Homo sapiens, UniProt P08069); assay: IGF-1R cellular autophosphorylation (DELFIA); format: cell-based
T2 construct: expressed in transfected cells; host or cells: NIH-3T3 (mouse fibroblasts)
T2 sequence (P08069 31-1367): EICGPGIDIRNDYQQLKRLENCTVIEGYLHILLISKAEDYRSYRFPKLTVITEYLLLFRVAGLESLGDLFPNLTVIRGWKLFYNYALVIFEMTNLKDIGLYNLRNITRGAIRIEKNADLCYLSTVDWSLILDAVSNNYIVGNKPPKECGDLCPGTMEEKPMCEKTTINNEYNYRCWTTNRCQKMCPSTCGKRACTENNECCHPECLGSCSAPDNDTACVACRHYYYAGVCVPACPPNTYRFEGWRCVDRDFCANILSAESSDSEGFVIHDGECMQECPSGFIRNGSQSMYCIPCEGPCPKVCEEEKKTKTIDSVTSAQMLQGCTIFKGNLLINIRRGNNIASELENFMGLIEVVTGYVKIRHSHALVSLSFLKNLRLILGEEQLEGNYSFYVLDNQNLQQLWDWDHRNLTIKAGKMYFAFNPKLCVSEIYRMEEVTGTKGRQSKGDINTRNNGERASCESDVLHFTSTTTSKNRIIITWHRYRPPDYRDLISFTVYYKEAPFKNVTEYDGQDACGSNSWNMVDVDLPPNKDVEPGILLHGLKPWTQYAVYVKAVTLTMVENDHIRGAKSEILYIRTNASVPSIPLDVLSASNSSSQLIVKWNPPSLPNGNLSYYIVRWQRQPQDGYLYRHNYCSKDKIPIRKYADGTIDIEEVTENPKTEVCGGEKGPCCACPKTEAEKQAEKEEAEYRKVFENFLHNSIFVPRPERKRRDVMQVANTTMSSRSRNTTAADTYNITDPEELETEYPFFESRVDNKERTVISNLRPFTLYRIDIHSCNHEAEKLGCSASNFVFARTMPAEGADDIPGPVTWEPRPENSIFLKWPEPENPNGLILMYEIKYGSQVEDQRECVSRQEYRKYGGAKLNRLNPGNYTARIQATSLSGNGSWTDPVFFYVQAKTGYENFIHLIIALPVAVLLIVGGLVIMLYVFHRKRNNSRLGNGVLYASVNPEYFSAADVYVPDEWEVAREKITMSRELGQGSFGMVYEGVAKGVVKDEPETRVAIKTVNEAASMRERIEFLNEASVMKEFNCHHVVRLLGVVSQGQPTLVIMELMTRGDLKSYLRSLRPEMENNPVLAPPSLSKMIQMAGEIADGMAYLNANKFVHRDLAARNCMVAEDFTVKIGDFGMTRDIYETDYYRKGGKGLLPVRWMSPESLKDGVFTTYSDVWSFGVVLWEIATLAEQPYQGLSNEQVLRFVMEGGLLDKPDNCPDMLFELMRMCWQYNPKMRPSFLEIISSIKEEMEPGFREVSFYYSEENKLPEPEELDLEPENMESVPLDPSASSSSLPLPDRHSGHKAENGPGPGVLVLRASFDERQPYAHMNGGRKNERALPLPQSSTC
In short: as §1

ALK, sequence (Q9UM73 19-1620): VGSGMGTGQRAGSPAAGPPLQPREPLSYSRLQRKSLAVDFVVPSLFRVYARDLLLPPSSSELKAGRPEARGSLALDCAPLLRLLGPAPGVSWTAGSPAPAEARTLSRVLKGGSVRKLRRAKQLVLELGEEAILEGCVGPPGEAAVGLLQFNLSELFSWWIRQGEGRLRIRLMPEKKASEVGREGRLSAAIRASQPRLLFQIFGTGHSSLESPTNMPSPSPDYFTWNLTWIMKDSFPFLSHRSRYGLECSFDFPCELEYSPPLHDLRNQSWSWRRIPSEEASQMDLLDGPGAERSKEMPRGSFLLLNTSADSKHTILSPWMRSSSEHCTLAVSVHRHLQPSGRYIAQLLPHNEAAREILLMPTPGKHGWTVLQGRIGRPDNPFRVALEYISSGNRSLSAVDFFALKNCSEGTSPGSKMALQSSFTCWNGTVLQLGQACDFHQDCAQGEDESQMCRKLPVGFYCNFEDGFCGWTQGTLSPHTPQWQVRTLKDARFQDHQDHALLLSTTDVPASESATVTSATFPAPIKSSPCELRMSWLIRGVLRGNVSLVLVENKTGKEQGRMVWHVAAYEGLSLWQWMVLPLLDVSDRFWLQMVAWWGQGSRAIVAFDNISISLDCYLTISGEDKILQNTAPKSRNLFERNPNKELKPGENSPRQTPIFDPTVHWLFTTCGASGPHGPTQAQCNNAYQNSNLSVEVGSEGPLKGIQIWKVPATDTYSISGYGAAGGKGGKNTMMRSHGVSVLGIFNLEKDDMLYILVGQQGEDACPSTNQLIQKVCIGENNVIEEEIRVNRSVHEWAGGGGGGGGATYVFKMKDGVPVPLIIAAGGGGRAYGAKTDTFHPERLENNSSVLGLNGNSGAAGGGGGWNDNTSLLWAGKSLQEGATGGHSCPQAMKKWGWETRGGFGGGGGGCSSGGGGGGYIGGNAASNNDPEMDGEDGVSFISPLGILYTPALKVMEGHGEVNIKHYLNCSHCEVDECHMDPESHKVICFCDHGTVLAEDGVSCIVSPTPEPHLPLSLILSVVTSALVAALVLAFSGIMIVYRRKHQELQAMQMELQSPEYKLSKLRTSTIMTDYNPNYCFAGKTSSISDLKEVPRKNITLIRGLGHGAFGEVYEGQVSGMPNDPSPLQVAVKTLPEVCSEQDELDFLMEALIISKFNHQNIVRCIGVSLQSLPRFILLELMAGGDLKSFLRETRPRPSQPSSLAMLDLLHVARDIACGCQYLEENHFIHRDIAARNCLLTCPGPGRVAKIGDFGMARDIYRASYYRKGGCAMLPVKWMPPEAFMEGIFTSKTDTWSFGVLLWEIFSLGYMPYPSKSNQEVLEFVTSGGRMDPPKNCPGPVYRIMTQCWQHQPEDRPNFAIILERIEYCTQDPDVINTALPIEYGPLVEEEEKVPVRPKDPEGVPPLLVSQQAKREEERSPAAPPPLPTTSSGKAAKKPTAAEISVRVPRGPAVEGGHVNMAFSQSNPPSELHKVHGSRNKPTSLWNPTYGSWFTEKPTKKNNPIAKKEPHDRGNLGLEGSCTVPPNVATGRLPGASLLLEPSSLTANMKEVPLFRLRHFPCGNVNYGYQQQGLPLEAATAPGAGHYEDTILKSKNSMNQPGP

Structure (SMILES)	IC50 [1] [nM]	IC50 [2] [nM]	IC50 [3] [nM]
COc1cc2c(cc1Nc1nc(Nc3cccc(F)c3C(N)=O)c3cc[nH]c3n1)N(C(=O)CCN1CCN(C(C)C)CC1)CC2 [Example 188, 2-fluoro-6-[(2-{[1-{3-[4-(1-methylethyl)-1-piperazinyl]propanoyl}-5-(methyloxy)-2,3-dihydro-1H-indol-6-yl]amino}-1H-pyrrolo[2,3-d]pyrimidin-4-yl)amino]benzamide]	5.01 to 200	> 500	> 500
CCCN(CCC)[C@@H](C)C(=O)N1CCc2cc(OC)c(Nc3nc(Nc4cccc(F)c4C(=O)NC)c4cc[nH]c4n3)cc21 [Example 191, 2-[(2-{[1-(N,N-dipropyl-L-alanyl)-5-(methyloxy)-2,3-dihydro-1H-indol-6-yl]amino}-1H-pyrrolo[2,3-d]pyrimidin-4-yl)amino]-6-fluoro-N-methylbenzamide]	5.01 to 200	> 500	100 to 500
CCCN(CCC)[C@@H](C)C(=O)N1CCc2cc(OC)c(Nc3nc(Nc4cccc(F)c4C(N)=O)c4cc[nH]c4n3)cc21 [Example 192, 2-[(2-{[1-(N,N-dipropyl-L-alanyl)-5-(methyloxy)-2,3-dihydro-1H-indol-6-yl]amino}-1H-pyrrolo[2,3-d]pyrimidin-4-yl)amino]-6-fluorobenzamide]	5.01 to 200	< 100	< 100
CNC(=O)c1c(F)cccc1Nc1nc(Nc2cc3c(cc2OC)CCN3C(=O)C(C)(C)O)nc2[nH]ccc12 [Example 193, 2-fluoro-6-[(2-{[1-(2-hydroxy-2-methylpropanoyl)-5-(methyloxy)-2,3-dihydro-1H-indol-6-yl]amino}-1H-pyrrolo[2,3-d]pyrimidin-4-yl)amino]-N-methylbenzamide]	5.01 to 200	> 500	> 500
CNC(=O)c1c(F)cccc1Nc1nc(Nc2cc3c(cc2OC)CCCN3C(=O)[C@@H]2CCCN2C)nc2[nH]ccc12 [Example 202, 2-fluoro-N-methyl-6-[(2-{[6-(methyloxy)-1-(1-methyl-L-prolyl)-1,2,3,4-tetrahydro-7-quinolinyl]amino}-1H-pyrrolo[2,3-d]pyrimidin-4-yl)amino]benzamide]	5.01 to 200	100 to 500	100 to 500
COc1cc(N2CCCN(S(C)(=O)=O)CC2)ccc1Nc1nc(Nc2cccc(F)c2C(N)=O)c2cc[nH]c2n1 [Example 207, 2-fluoro-6-{[2-({2-(methyloxy)-4-[4-(methylsulfonyl)hexahydro-1H-1,4-diazepin-1-yl]phenyl}amino)-1H-pyrrolo[2,3-d]pyrimidin-4-yl]amino}benzamide]	1.26 to 3.98	> 500	> 500
COc1cc2c(cc1Nc1nc(Nc3cccc(F)c3C(N)=O)c3cc[nH]c3n1)NCCC2 [Example 211, 2-fluoro-6-[(2-{[6-(methyloxy)-1,2,3,4-tetrahydro-7-quinolinyl]amino}-1H-pyrrolo[2,3-d]pyrimidin-4-yl)amino]benzamide]	5.01 to 200	> 500	> 500
CNC(=O)c1c(F)cccc1Nc1nc(Nc2cc3c(cc2OC)CCCN3C(=O)CCN(C)C)nc2[nH]ccc12 [Example 213, 2-[(2-{[1-(N,N-dimethyl-β-alanyl)-6-(methyloxy)-1,2,3,4-tetrahydro-7-quinolinyl]amino}-1H-pyrrolo[2,3-d]pyrimidin-4-yl)amino]-6-fluoro-N-methylbenzamide]	5.01 to 200	> 500	> 500
COc1cc2c(cc1Nc1nc(Nc3cccc(F)c3C(N)=O)c3cc[nH]c3n1)N(C(=O)CCN(C)C)CCC2 [Example 214, 2-[(2-{[1-(N,N-dimethyl-β-alanyl)-6-(methyloxy)-1,2,3,4-tetrahydro-7-quinolinyl]amino}-1H-pyrrolo[2,3-d]pyrimidin-4-yl)amino]-6-fluorobenzamide]	5.01 to 200	100 to 500	100 to 500
COc1cc2c(cc1Nc1nc(Nc3cc(F)cc(F)c3C(N)=O)c3cc[nH]c3n1)NCCC2 [Example 220, 2,4-difluoro-6-[(2-{[6-(methyloxy)-1,2,3,4-tetrahydro-7-quinolinyl]amino}-1H-pyrrolo[2,3-d]pyrimidin-4-yl)amino]benzamide]	5.01 to 200	> 500	100 to 500
CNC(=O)c1c(F)cc(F)cc1Nc1nc(Nc2cc3c(cc2OC)CCCN3C(=O)CN2CCCC2)nc2[nH]ccc12 [Example 221, 2,4-difluoro-N-methyl-6-[(2-{[6-(methyloxy)-1-(1-pyrrolidinylacetyl)-1,2,3,4-tetrahydro-7-quinolinyl]amino}-1H-pyrrolo[2,3-d]pyrimidin-4-yl)amino]benzamide]	1.26 to 3.98	< 100	< 100
CNC(=O)c1c(F)cccc1Nc1nc(Nc2cc3c(cc2OC)CCC(=O)N3)nc2[nH]ccc12 [Example 222, 2-fluoro-N-methyl-6-[(2-{[6-(methyloxy)-2-oxo-1,2,3,4-tetrahydro-7-quinolinyl]amino}-1H-pyrrolo[2,3-d]pyrimidin-4-yl)amino]benzamide]	5.01 to 200	> 500	> 500

The next lines start with the values.

IC50 [1] [nM]	IC50 [2] [nM]	IC50 [3] [nM]	Structure (SMILES)
1.26 to 3.98	100 to 500	100 to 500	COc1cc2c(cc1Nc1nc(Nc3cccc(F)c3C(N)=O)c3cc[nH]c3n1)N(C(=O)CCN1CCOCC1)CC2 [Example 187, 2-fluoro-6-{[2-({5-(methyloxy)-1-[3-(4-morpholinyl)propanoyl]-2,3-dihydro-1H-indol-6-yl}amino)-1H-pyrrolo[2,3-d]pyrimidin-4-yl]amino}benzamide]
1.26 to 3.98	< 100	< 100	COc1cc2c(cc1Nc1nc(Nc3cc(F)cc(F)c3C(N)=O)c3cc[nH]c3n1)N(C(=O)CN(C)C)CC2 [Example 189, 2-[(2-{[1-(N,N-dimethylglycyl)-5-(methyloxy)-2,3-dihydro-1H-indol-6-yl]amino}-1H-pyrrolo[2,3-d]pyrimidin-4-yl)amino]-4,6-difluorobenzamide]
0.251 to 1	< 100	< 100	CNC(=O)c1c(F)cc(F)cc1Nc1nc(Nc2cc3c(cc2OC)CCN3C(=O)CN(C)C)nc2[nH]ccc12 [Example 190, 2-[(2-{[1-(N,N-dimethylglycyl)-5-(methyloxy)-2,3-dihydro-1H-indol-6-yl]amino}-1H-pyrrolo[2,3-d]pyrimidin-4-yl)amino]-4,6-difluoro-N-methylbenzamide]
1.26 to 3.98	< 100	< 100	COc1cc2c(cc1Nc1nc(Nc3cccc4c3C(=O)NC4)c3cc[nH]c3n1)N(C(=O)CN(C)C)CC2 [Example 200, 7-[(2-{[1-(N,N-dimethylglycyl)-5-(methyloxy)-2,3-dihydro-1H-indol-6-yl]amino}-1H-pyrrolo[2,3-d]pyrimidin-4-yl)amino]-2,3-dihydro-1H-isoindol-1-one]
0.251 to 1	< 100	100 to 500	COc1cc(OCCN2CCN(C)CC2)ccc1Nc1nc(Nc2cccc(F)c2C(N)=O)c2cc[nH]c2n1 [Example 203, 2-fluoro-6-({2-[(2-(methyloxy)-4-{[2-(4-methyl-1-piperazinyl)ethyl]oxy}phenyl)amino]-1H-pyrrolo[2,3-d]pyrimidin-4-yl}amino)benzamide]
0.251 to 1	> 500	> 500	COc1cc(N2CCN(S(C)(=O)=O)CC2)ccc1Nc1nc(Nc2cccc(F)c2C(N)=O)c2cc[nH]c2n1 [Example 204, 2-fluoro-6-{[2-({2-(methyloxy)-4-[4-(methylsulfonyl)-1-piperazinyl]phenyl}amino)-1H-pyrrolo[2,3-d]pyrimidin-4-yl]amino}benzamide]
1.26 to 3.98	100 to 500	100 to 500	COc1cc(OCCCN2CCN(C)CC2)ccc1Nc1nc(Nc2cccc(F)c2C(N)=O)c2cc[nH]c2n1 [Example 205, 2-fluoro-6-({2-[(2-(methyloxy)-4-{[3-(4-methyl-1-piperazinyl)propyl]oxy}phenyl)amino]-1H-pyrrolo[2,3-d]pyrimidin-4-yl}amino)benzamide]
0.251 to 1	100 to 500	100 to 500	COc1cc(N2CCCN(C(C)C)CC2)ccc1Nc1nc(Nc2cccc(F)c2C(N)=O)c2cc[nH]c2n1 [Example 208, 2-fluoro-6-[(2-{[4-[4-(1-methylethyl)hexahydro-1H-1,4-diazepin-1-yl]-2-(methyloxy)phenyl]amino}-1H-pyrrolo[2,3-d]pyrimidin-4-yl)amino]benzamide]
0.251 to 1	< 100	< 100	COc1cc2c(cc1Nc1nc(Nc3cccc(F)c3C(N)=O)c3cc[nH]c3n1)N(C(=O)CN(C)C)CCC2 [Example 210, 2-[(2-{[1-(N,N-dimethylglycyl)-6-(methyloxy)-1,2,3,4-tetrahydro-7-quinolinyl]amino}-1H-pyrrolo[2,3-d]pyrimidin-4-yl)amino]-6-fluorobenzamide]
0.251 to 1	< 100	< 100	COc1cc2c(cc1Nc1nc(Nc3cccc(F)c3C(N)=O)c3cc[nH]c3n1)N(C(=O)CN1CCCCC1)CCC2 [Example 218, 2-fluoro-6-[(2-{[6-(methyloxy)-1-(1-piperidinylacetyl)-1,2,3,4-tetrahydro-7-quinolinyl]amino}-1H-pyrrolo[2,3-d]pyrimidin-4-yl)amino]benzamide]
0.251 to 1	< 100	< 100	COc1cc2c(cc1Nc1nc(Nc3cc(F)cc(F)c3C(N)=O)c3cc[nH]c3n1)N(C(=O)CN1CCCC1)CCC2 [Example 219, 2,4-difluoro-6-[(2-{[6-(methyloxy)-1-(1-pyrrolidinylacetyl)-1,2,3,4-tetrahydro-7-quinolinyl]amino}-1H-pyrrolo[2,3-d]pyrimidin-4-yl)amino]benzamide]
